# ChEMBL document CHEMBL6078615, “Sesquilignans: Current research and potential prospective” (Eur J Med Chem, 2024)
# How the values were obtained:
# [1] = system: SH-SY5Y; assay: Induction of apoptosis in human SH-SY5Y cells assessed as increase in caspase-3 activity at 25 uM incubated for 72 hrs by colorimetric assay relative to control; format: functional
# [2] = Antioxidant activity assessed as DPPH radical scavenging activity incubated for 30 mins by spectrophotometric analysis; format: functional
# [3] = Inhibition of alpha-glucosidase (unknown origin); set-up: species or system Homo sapiens
# [4] = biological target: Acetylcholinesterase (Homo sapiens, UniProt P22303); assay: Inhibition of AChE (unknown origin)
# [5] = system: SH-SY5Y; assay: Inhibition of H2O2-induced oxidative stress in human SH-SY5Y cells assessed as residual ROS level at 25 uM incubated for 3 hrs relative to control; format: functional
# [6] = system: RAW264.7; assay: Anti-inflammatory activity in mouse RAW264.7 cells assessed as inhibition of LPS-induced NO production pre-incubated for 2 hrs followed by LPS-stimulation for 22 hrs by Griess reaction assay; format: functional; set-up: concentration or dose not given beside the values; settings: time 24 hrs
# [7] = Cytotoxicity against human HUVEC cells assessed as reduction in cell growth incubated for 48 hrs by CCK-8 method; format: toxicity, cell-based
# [8] = system: K562; assay: Antiproliferative activity against human K562 cells assessed as reduction in cell viability incubated for 72 hrs by CCK-8 assay; format: functional, cell-based; settings: K562, 72 h
# [9] = system: CNE-2; assay: Anticancer activity against human CNE-2 cells assessed as reduction in cell growth; format: functional, cell-based
# [10] = system: HeLa; assay: Cytotoxicity against human HeLa cells assessed as reduction in cell viability incubated for 48 hrs by MTT assay; format: functional, cell-based
# [11] = system: RAW264.7; assay: Antiinflammatory activity in LPS-induced mouse RAW264.7 cells assessed as inhibition of TNFalpha secretion preincubated for 1 hr followed by LPS addition measured for 24 hrs by ELISA method; format: functional, cell-based
# [12] = system: RAW264.7; assay: Antiinflammatory activity in LPS-induced mouse RAW264.7 cells assessed as inhibition of IL-1beta secretion preincubated for 1 hr followed by LPS addition for 24 hrs by ELISA method; format: functional, cell-based
# [13] = system: RAW264.7; assay: Antiinflammatory activity in LPS-induced mouse RAW264.7 cells assessed as inhibition of IL-6 secretion preincubated for 1 hr followed by LPS addition for 24 hrs by ELISA method; format: functional, cell-based
# [14] = system: BV-2; assay: Anti-inflammatory activity against mouse BV-2 cells assessed as inhibition of LPS-induced NO production pretreated for 2 hrs followed stimulated with LPS for 22 hrs by Griess reaction assay; format: functional, cell-based
# [15] = system: MCF7; assay: Cytotoxicity against human MCF7 cells assessed as reduction in cell viability incubated for 72 hrs by MTT assay; format: functional, cell-based; settings: MCF7, 72 h
# Sequence of Acetylcholinesterase (P22303 whole entry): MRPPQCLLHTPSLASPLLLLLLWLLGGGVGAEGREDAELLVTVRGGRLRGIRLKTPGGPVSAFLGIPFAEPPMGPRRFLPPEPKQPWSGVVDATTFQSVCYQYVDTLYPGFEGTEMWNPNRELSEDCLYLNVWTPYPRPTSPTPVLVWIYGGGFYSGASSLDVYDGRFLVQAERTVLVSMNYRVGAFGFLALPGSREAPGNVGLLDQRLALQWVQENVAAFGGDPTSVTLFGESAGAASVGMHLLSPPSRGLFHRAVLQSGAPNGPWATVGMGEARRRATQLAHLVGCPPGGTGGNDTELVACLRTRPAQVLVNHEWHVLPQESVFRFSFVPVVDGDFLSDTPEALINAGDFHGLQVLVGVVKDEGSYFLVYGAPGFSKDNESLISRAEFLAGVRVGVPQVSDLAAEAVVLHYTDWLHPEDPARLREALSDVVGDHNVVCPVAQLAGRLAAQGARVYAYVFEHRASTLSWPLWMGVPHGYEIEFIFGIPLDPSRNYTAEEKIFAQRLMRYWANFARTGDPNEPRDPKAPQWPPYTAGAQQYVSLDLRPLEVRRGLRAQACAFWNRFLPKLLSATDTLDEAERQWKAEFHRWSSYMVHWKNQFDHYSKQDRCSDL
smiles,measurement,setting,value
COc1cc([C@@H]2c3cc(O[C@H](CO)[C@H](O)c4ccc(O)c(OC)c4)c(OC)cc3C[C@H](CO)[C@H]2CO)ccc1O,Activity,[1],80.72%
CC(Cc1ccc(O)cc1)c1cc([C@H]2O[C@@H](c3ccc(O)c(O)c3)[C@H](C)[C@H]2C)ccc1O (some centres undefined),IC50,[2],1.12 µM
COc1cc([C@@H](O)[C@@H](CO)Oc2ccc([C@@H]3OC[C@@H]4[C@H]3CO[C@H]4c3ccc(O)c(OC)c3)cc2OC)ccc1O,IC50,[3],3.05 µM
C=CCc1ccc(O)c(-c2cc(CC=C)cc(-c3cc(CC=C)ccc3O)c2O[C@H]2CC(C)(C)[C@@H]3CC[C@]4(C)C[C@]23CC[C@H]4O)c1,IC50,[4],4.58 µM
COc1cc([C@H]2OC[C@H]3[C@@H]2CO[C@@H]3c2cc(OC)c(O[C@@H](CO)[C@@H](OC)c3ccc(O)c(OC)c3)c(OC)c2)ccc1O,IC50,[2],55.8 µM
C=CCc1ccc(O)c(-c2cc(CC=C)cc(-c3cc(CC=C)ccc3O)c2O[C@@H]2C[C@@H](C(C)C)C=C[C@]2(C)O)c1,IC50,[4],6.55 µM
COc1cc([C@@H](OC)[C@@H](CO)Oc2c(OC)cc([C@@H]3Oc4c(OC)cc([C@H](O)[C@@H](O)CO)cc4[C@H]3CO)cc2OC)ccc1O,Activity,[1],90.74%
same,Activity,[5],90.74%
COc1cc([C@@H]2c3c(cc(OC)c4c3[C@H](CO)[C@H](c3ccc(O)c(OC)c3)O4)C[C@H](CO)[C@H]2CO)ccc1O,Activity,[6],19.46%
COc1cc([C@@H](O)[C@H](CO)Oc2ccc([C@H]3OC[C@H]4[C@@H]3CO[C@@H]4c3ccc(O)c(OC)c3)cc2OC)ccc1O,IC50,[3],5.17 µM
COCc1c(-c2ccc(O)c(OC)c2)oc2c(OC)cc([C@H]3OC[C@@H]4[C@H]3CO[C@@H]4c3ccc(O)c(OC)c3)cc12,IC50 at 48 h,[7],32.8 µM
COc1cc(C[C@H]2COC(=O)[C@@H]2Cc2cc(OC)c3c(c2)[C@H](CO)[C@@H](c2ccc(O)c(OC)c2)O3)ccc1O,IC50,[8],53.5 µg/mL
CCO[C@@H](c1ccc(O)c(OC)c1)[C@H](CO)Oc1ccc([C@H](O)[C@@H](CO)Oc2ccc(CCCO)cc2OC)cc1OC,Activity,[5],71.1%
COc1cc([C@H]2OC[C@H]3[C@@H]2CO[C@@H]3c2ccc(O[C@H](CO)[C@@H](O)c3ccc(O)c(OC)c3)c(OC)c2)ccc1O,IC50,[3],6.73 µM
COc1cc(C[C@@H](CO)[C@H](CO)Cc2cc(OC)c3c(c2)[C@H](CO)[C@@H](c2ccc(O)c(OC)c2)O3)ccc1O,EC50,[9],2 µg/mL
same,IC50,[10],114 µg/mL
COc1cc([C@@H]2c3c(cc(OC)c4c3[C@H](CO)[C@H](c3ccc(O[C@@H]5O[C@H](CO)[C@@H](O)[C@H](O)[C@H]5O)c(OC)c3)O4)C[C@H](CO)[C@H]2CO)ccc1O,Activity,[6],64.82%
COc1cc([C@H](O)[C@@H](CO)Oc2c(OC)cc([C@H]3OC[C@H]4[C@@H]3CO[C@@H]4c3cc(OC)c(O)c(OC)c3)cc2OC)ccc1O,IC50,[11],50.9 µM
same,IC50,[12],10.9 µM
same,IC50,[13],2.4 µM
COc1cc([C@H]2OC[C@H]3[C@@H]2CO[C@@H]3c2cc(OC)c(OC)c(OC)c2)ccc1O[C@@H](CO)[C@H](O)c1cc(OC)c(OC)c(OC)c1,IC50,[14],10.9 µM
COc1ccc([C@@H]2O[C@H](c3ccc(OC)c(O[C@H](C)[C@@H](O)c4ccc(O)c(OC)c4)c3)[C@H](C)[C@H]2C)cc1O,IC50,[15],8.8 µM
same,Activity,[6],18.1%
COc1cc([C@H](O)[C@@H](CO)Oc2ccc([C@@H](O)[C@H](CO)Oc3c(OC)cc([C@H](O)[C@@H](O)CO)cc3OC)cc2OC)ccc1O,Activity,[5],75.9%
COc1cc(O)cc([C@@H]2c3c(cc(OC)c4c3[C@H](CO)[C@H](c3ccc(O)c(OC)c3)O4)C[C@H](CO)[C@H]2CO)c1,IC50,[3],5.17 µM
COc1cc(C[C@H]2C(=O)OC[C@@H]2Cc2cc(OC)c3c(c2)[C@H](CO)[C@@H](c2ccc(O)c(OC)c2)O3)ccc1O,IC50,[8],51.1 µg/mL
COc1cc([C@@H](O)[C@@H](CO)Oc2ccc([C@H](O)[C@H](CO)Oc3c(OC)cc([C@H](O)[C@H](O)CO)cc3OC)cc2OC)ccc1O,Activity,[5],74.78%
COc1cc([C@@H](O)[C@@H](CO)Oc2ccc([C@H](O)[C@H](CO)Oc3c(OC)cc([C@H](O)[C@@H](O)CO)cc3OC)cc2OC)ccc1O,Activity,[5],75.8%
OC[C@@H]1Oc2ccc([C@H]3OC[C@H]4[C@@H]3CO[C@@H]4c3ccc(O)c(O)c3)cc2O[C@H]1c1ccc(O)c(O)c1 [PRINCEPIN],IC50,[14],1.28 µM
